The nature of data set [1]: in vivo. The settings on record: Sprague-Dawley, rat, plasma, iv, 0.5 mg/kg.
A short description of data set [2]: in vivo. To be noted: Sprague-Dawley, rat, plasma, po, 2 mg/kg.
The nature of data set [3]: in vivo. To be noted: Sprague-Dawley, rat, plasma, iv, 0.5 mg/kg. The source holds these as a separate data set.
A short description of data set [4]: in vivo. To be noted: Sprague-Dawley, rat, plasma, po, 2 mg/kg. The source holds these as a separate data set.
Data set [5] is described as follows: Ratio of drug level in brain to plasma in Sprague-Dawley rat at 0.5 mg/kg, iv or 2 mg/kg, po by LC-MS/MS analysis. In kind it is ADME, organism-based. To be noted: read-out: BPR.
Data set [6] in a line: in vivo. To be noted: Sprague-Dawley, rat, plasma, po, 2 mg/kg. The source holds these as a separate data set.
Data set [7] is described as follows: in vivo. The settings on record: Sprague-Dawley, rat, iv, 0.5 mg/kg.
Data set [8] can be described thus: in vivo. The settings on record: Sprague-Dawley, rat, iv, 0.5 mg/kg. The source holds these as a separate data set.
Data set [9] can be described thus: in vivo. The settings on record: Sprague-Dawley, rat, plasma, po, 10 mg/kg.
Data set [10] in a line: Volume of distribution at steady state in Sprague-Dawley rat plasma at 1 mg/kg, iv administered as single bolus dose by LC-MS/MS analysis. In kind it is ADME, organism-based. The settings on record: read-out: Vdss.
Data set [11] can be described thus: AUC (0 to last) in Sprague-Dawley rat plasma at 1 mg/kg, iv administered as single bolus dose by LC-MS/MS analysis. Further details: dose 1 mg/kg, route intravenous, time 0 - last. In kind it is ADME, organism-based.
Data set [12] is described as follows: Half life in Sprague-Dawley rat plasma at 1 mg/kg, iv administered as single bolus dose by LC-MS/MS analysis. In kind it is ADME, organism-based.
A short description of data set [13]: Clearance in Sprague-Dawley rat at 1 mg/kg, iv administered as single bolus dose by LC-MS/MS analysis. The data set is classed as ADME, organism-based. The settings on record: in vivo.
Data set [14] can be described thus: in vivo. To be noted: Sprague-Dawley, rat, plasma, po, 10 mg/kg. The source holds these as a separate data set.
Data set [15] in a line: in vivo. To be noted: Sprague-Dawley, rat, plasma, po, 10 mg/kg. The source holds these as a separate data set.
Data set [16] can be described thus: Ratio of drug level in brain to plasma in Sprague-Dawley rat at 1 mg/kg, iv or 10 mg/kg, po by LC-MS/MS analysis. In kind it is ADME, organism-based. To be noted: read-out: BPR.
The next data set can be described thus: in vitro. The settings on record: human, Caco-2.
Data set [17] relates to Plasma. The data set can be described thus: Free plasma concentration in Sprague-Dawley rat at 100 mg/kg administered via oral gavage by LC-MS/MS method. To be noted: in vivo. In kind it is ADME, organism-based.
In data set [18] the test system is Plasma. In words: Plasma concentration in Sprague-Dawley rat at 100 mg/kg administered via oral gavage by LC-MS/MS method. In kind it is ADME, organism-based. The settings on record: in vivo.

`N[C@@H]1CCC=C(c2ccc(F)cc2)[C@H]1COc1cc(F)c(S(=O)(=O)Nc2cscn2)cc1Cl` showed a Vd in the data set “in vivo [1]” of 8.9 L/kg. Also, the bioavailability – broadly, dose-corrected exposure relative to a reference, in per cent – in “in vivo [2]” turned out to be 18.4%. The half-life (as a rule, the time in which the quantity being followed falls by half) in the data set “in vivo [3]” was 3.6 h. The AUC(0-t) (usually exposure summed from dosing to a finite time, without extrapolation to infinity) worked out at 0.25 µM·h in the data set “in vivo [4]” and 0.34 µM·h in “in vivo [8]”. Moreover, in data set [5], the Kp turned out to be 0.26. Besides, the Tmax (usually the time at which the peak concentration occurs) in “in vivo [6]” was 1.7 h. Further, the clearance (as a rule, the volume of plasma or blood freed of the substance per unit of time) in “in vivo [7]” was 39.2 mL/min/kg.
Consider `O=S(=O)(Nc1cscn1)c1cc(Cl)c(OCC2NCCC=C2c2ccc(F)cc2)cc1F` (stereo unspecified), for which, in “in vivo [9]”, the bioavailability is 64.8%. Further, in [10], the Vd was 0.6 L/kg. Moreover, the AUC(0-t) in [11] amounted to 3.56 µM·h; in the data set “in vivo [14]” it was 41.8 µM·h. Also, the half-life in data set [12] was 2.7 h. This compound gave a clearance in data set [13] of 4.5 mL/min/kg. In “in vivo [15]”, the Tmax was 3.8 h. Also, the Kp in [16] was 0.017. Also, in the data set “in vitro”, the Papp A→B (commonly how fast a substance crosses the layer from the apical side) was determined as 3.2 ×10⁻⁶ cm/s.
As for `O=S(=O)(Nc1cscn1)c1cc(Cl)c(OC[C@H]2NCCC=C2c2ccc(F)cc2)cc1F`, the “Cp(f)” value in the data set on Plasma [17] came out at 0.41 µM. The concentration in the data set on Plasma [18] worked out at 82.1 µM.
Taken in the same sequence, the figures for `Nc1[nH]ncc1-c1cc(Cl)ccc1Oc1cc(F)c(S(=O)(=O)Nc2cscn2)cc1Cl` [PF-05089771] were 0.279 µM and 55.8 µM.

Values taken from ChEMBL document CHEMBL4017456, “The discovery of tetrahydropyridine analogs as hNav1.7 selective inhibitors for analgesia” (Bioorg Med Chem Lett, 2017).
